Consider three substances from US7208282B2 (priority 2001, dated 2007).

Values joined by “and” are separate entries in the source; they are usually repeats but may differ in a detail not shown here. Equal values may be shown once.

Assay [1] has as its system ferret MCH-2R. Description: aequorin bioluminescence functional assay, ferret MCH-2R. The assay is classed as cell-based. The note with it: aequorin HEK-293 cells, read-out: Function (EC50). From the text:
The aequorin bioluminescence assay is a reliable test for identifying G-protein-coupled receptors which couple through the G protein subunit family consisting of Gq and G11 which leads to the activation of phospholipase C, mobilization of intracellular calcium, and activation of protein kinase C. (Ungrin, et al., Anal. Biochem. 1999. 272:34–42.)
For expression studies, HEK-293 cells stably expressing the aequorin reporter protein were transiently transfected with MCH-2R human or ferret expression plasmid or stable cell lines were derived (human MCH-2R). The assay was performed using a Luminoscan RT luminometer (Labsystems Inc., Gaithersburg, Md.).
293AEQ17/Aequorin cells (Button, et al., 1993. Cell Calcium 14, 663–671), were cultured for 72 hours and the apo-aequorin in the cells was charged for 1 hour with coelenterazine (10 μM) under reducing conditions (300 μM reduced glutathione) in ECB buffer (140 mM NaCl, 20 mM KCl, 20 mM HEPES-NaOH, pH 7.4, 5 mM glucose, 1 mM MgCl2, 1 mM CaCl2, 0.1 mg/mL bovine serum albumin). […] 100 μL of cell suspension (corresponding to 5×10^4 cells) was then injected into the test plate containing ligands, and the integrated light emission was recorded over 30 seconds, in 0.5-second units. 20 μL of lysis buffer (0.1% final Triton X-100 concentration) was then injected and the integrated light emission recorded over 10 seconds, in 0.5-second units. […]

Assay [2] relates to ferret MCH-2R. Description: membrane radioligand binding assay, transfected COS-7 cells, ferret MCH-2R. The settings on record: COS-7 membranes. As for the experimental part: Membrane binding assays were performed on transiently-transfected COS-7 cells using human or ferret MCH-2R in the plasmid vector pCI-neo (Promega, Madison, Wis.), COS-7 cells were cultured in Dulbecco's modified Eagle medium (Gibco BRL, Rockville, Md.) with 10% heat inactivated fetal calf serum.
A suspension of 7×10^6 COS-7 cells were transfected with 20 μg of pCI-neo/MCH-2R plasmid by electroporation. (Strader, et al., 1987. Proc. Natl. Acad. Sci. USA 84, 4384–4388). Cells were harvested after 60–72 hours. Membranes were prepared from transient and stable transfectants by hypotonic lysis, frozen in liquid nitrogen, and stored at −80° C. (MacNeil, et al., 1994. Biochem. Biophys. Res. Commun. 198, 328–334.)
A binding assay was set up in 96 well plates. Total volume per binding assay point was 200 μL. […] Dose response curves were from 10 μM in 5 fold or 3-fold dilution series for 11 points. The mixture was shaken for 5 minutes on a platform shaker, and incubated at room temperature for 1 hour. Filter plates were presoaked in 1% PEI. The binding reaction was harvested onto filters using Packard Filtermate harvester (Meriden, Conn.). The filters were then washed in 50 mM Tris pH 7.4, 10 mM MgCl2, 2 mM EDTA, 0.04% Tween 20, 6–8 times per plate. […] 30 μL microscintillant was added per well and counted for 1.5–3 minutes in inverted format on Packard TopCount. […]

A further assay deals with non-transfected cells. Description: intracellular calcium (fura-2) in non-transfected HEK293T cells. The assay is classed as cell-based, human. The note with it: data not shown. From the text: The entire coding sequence of rhesus MCH-2R was cloned into BamHI-NotI site of pEF1/[…] C plasmid vector (Invitrogen). The resultant construct was transfected into HEK293T cells using LipofectAmine PLUS (Life Technologies, Rockville, Md.) according to the manufacture's instructions. Human embryonic kidney cells constitutively expressing SV40 large T antigen (HEK-293T) were maintained in Dulbecco's modified Eagle medium (Life Technologies) supplemented with 10% fetal bovine serum, 100 units/ml penicillin-G and 100 μg/ml streptomycin at 37° C. with 5% CO2 in a humidified atmosphere. […] The cells were suspended with the buffer containing 2 μM fura-2 acetoxymethylester (Dojin, Kumamoto, Japan) into the cell density of 1.0×10^7 cells/ml and incubated at 37° C. for 60 minutes with gently shaking. The fura-2-loaded cells were washed twice with the buffer and re-suspended with the buffer to 1.0×10^6 cells/ml. 0.5 ml of the resultant suspension was stirred continuously at 37° C. in a glass cuvette during the measurement. […] Data were analyzed using the software GraphPad Prism Version 3.0 (GraphPad Software, Inc., San Diego, Calif., USA).
For orientation: Calcium flux is commonly read through the fluorescence of an indicator in the cells.

The test system of the next assay is mock transfected cells. Put plainly: radioligand binding to mock transfected HEK293T cells. The note with it: for specific binding into mock transfected cells: in words. Further details: species or system human. As for the experimental part:
HEK293T cells were seeded into 24-well culture plates coated with poly-D-Lys at 1×10^5 cells/well and were cultured over-night. […] Forty-eight hours after transfection, the transfected monolayer cells were rinsed with the assay buffer (Hanks' balanced salt solution containing 20 mM HEPES, 0.2% BSA and 100 μg/ml bacitracin, pH 7.4). The cells were then incubated in 250 μl/well of the same buffer with [^125I]-MCH (100 pM, NEN Life Science Products, Boston, Mass.) or [^125I]-[Phe^13, Tyr^19]-MCH (100 pM, NEN Life Science Products) for 30 minutes at 37° C. After the incubation, the cells were washed three times with the ice cold assay buffer and lysed with 500 μl/well of 2 M NaOH. The lysates were transferred into test tubes and the cell-bound radioactivity was measured by a COBLA Quantum γ-counter (Packard Instrument, Meriden, Conn.).

For the next assay, the target named is T1, rhesus MCH-2R (Macaca mulatta, UniProt Q8MJ88).
T1 construct: expressed in transfected cells; host or cells: HEK293T
Description: radioligand binding to adherent HEK293T cells expressing rhesus MCH-2R. Further details: species or system rhesus monkey. How it is done:
HEK293T cells were seeded into 24-well culture plates coated with poly-D-Lys at 1×10^5 cells/well and were cultured over-night. The adherent cells were transfected with pEF1/V5-HisC/rhesus MCH-2R plasmid (see Example 2). Forty-eight hours after transfection, the transfected monolayer cells were rinsed with the assay buffer (Hanks' balanced salt solution containing 20 mM HEPES, 0.2% BSA and 100 μg/ml bacitracin, pH 7.4). The cells were then incubated in 250 μl/well of the same buffer with [^125I]-MCH (100 pM, NEN Life Science Products, Boston, Mass.) or [^125I]-[Phe^13, Tyr^19]-MCH (100 pM, NEN Life Science Products) for 30 minutes at 37° C. After the incubation, the cells were washed three times with the ice cold assay buffer and lysed with 500 μl/well of 2 M NaOH. The lysates were transferred into test tubes and the cell-bound radioactivity was measured by a COBLA Quantum γ-counter (Packard Instrument, Meriden, Conn.).

Where [3] appears, read: 100 pM radioligand, Mock transfected cells.

T1 sequence (Q8MJ88 whole entry): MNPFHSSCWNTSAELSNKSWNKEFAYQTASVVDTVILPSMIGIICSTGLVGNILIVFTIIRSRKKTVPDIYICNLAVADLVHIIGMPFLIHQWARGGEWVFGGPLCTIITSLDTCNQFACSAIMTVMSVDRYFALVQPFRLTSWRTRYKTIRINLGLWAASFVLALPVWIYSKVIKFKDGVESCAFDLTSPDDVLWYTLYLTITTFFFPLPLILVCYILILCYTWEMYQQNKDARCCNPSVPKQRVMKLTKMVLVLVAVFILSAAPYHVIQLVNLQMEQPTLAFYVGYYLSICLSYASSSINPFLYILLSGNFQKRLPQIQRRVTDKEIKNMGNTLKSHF
ferret MCH-2R, sequence (as listed by the source): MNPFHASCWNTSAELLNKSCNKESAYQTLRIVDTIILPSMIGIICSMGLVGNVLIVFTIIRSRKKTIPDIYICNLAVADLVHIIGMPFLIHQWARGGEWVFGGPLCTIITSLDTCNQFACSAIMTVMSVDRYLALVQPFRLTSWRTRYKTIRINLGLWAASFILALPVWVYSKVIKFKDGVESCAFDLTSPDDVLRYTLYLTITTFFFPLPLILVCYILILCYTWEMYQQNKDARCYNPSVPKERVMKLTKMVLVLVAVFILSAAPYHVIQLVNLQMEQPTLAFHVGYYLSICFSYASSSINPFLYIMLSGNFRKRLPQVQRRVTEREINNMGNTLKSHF

The term EC50 denotes the concentration needed to bring the measured effect to its halfway point. The term IC50 denotes the concentration at which inhibition is half-maximal. Regarding Melanin-concentrating hormone [MCH], the EC50 in the assay with ferret MCH-2R [1] was 69 nM. In the assay with ferret MCH-2R [2], the IC50 is 55 nM. In addition, in the assay on non-transfected cells, the “[Ca2+]i increase in non-transfected cells” value was “failed to induce a detectable [Ca^2+]i increase”.

For [^125I]-MCH, in the assay with mock transfected cells (setting [3]), the “[125I]-MCH binding, Total binding” value was 209.9 cpm and 215.8 cpm and 239.8 cpm. In the assay with mock transfected cells (100 pM radioligand, in the presence of 1 μM cold MCH, Mock transfected cells), the “[125I]-MCH binding, Nonspecific binding” value is 172.0 cpm and 180.9 cpm and 184.1 cpm. In the assay on mock transfected cells, the “specific binding into mock transfected cells” value is “not observed”.

Regarding [^125I]-[Phe^13, Tyr^19]-MCH, the “[125I]-[Phe13, Tyr19]-MCH binding, Total binding” value was 708.9 cpm and 663.3 cpm and 771.5 cpm in the assay with mock transfected cells (setting [3]); 18031.2 cpm and 18749.0 cpm and 17985.4 cpm on rhesus MCH-2R (100 pM radioligand, 30 minutes at 37° C., rhesus MCH-2R transfected cells). For the same substance, the “[125I]-[Phe13, Tyr19]-MCH binding, Nonspecific binding” value was 539.7 cpm and 537.7 cpm and 557.8 cpm in the assay with mock transfected cells (100 pM radioligand, in the presence of 1 μM cold [Phe13, Tyr19]-MCH, Mock transfected cells); 567.4 cpm and 717.0 cpm and 598.0 cpm at rhesus MCH-2R (100 pM radioligand, in the presence of 1 μM cold [Phe13, Tyr19]-MCH, rhesus MCH-2R transfected cells). Further, the “specific binding into mock transfected cells” value in the assay with mock transfected cells was “not observed”. Moreover, the “binding to HEK293T cells expressing rhesus MCH-2R” value at rhesus MCH-2R (in words) is “good windows”.
